Earlier results on 5 molecules are cited in patent US20130189275A1, “COMPOSITIONS AND METHODS FOR INHIBITION OF OR TREATMENT OF DENGUE VIRUS INFECTION” (priority 2010, published 2013).

Structures are written as SMILES.

Take `C=C(c1ccc(C(=O)O)cc1)c1cc2c(cc1C)C(C)(C)CCC2(C)C` [bexarotene]: the syndecan-2 expression entry in the data set on Syndecan-2 is reported as “downregulated”. In the case of `C[C@]12CCC(=O)C[C@@H]1CC[C@@H]1[C@@H]2CC[C@]2(C)[C@@H](O)CC[C@@H]12` [dihydrotestosterone], the syndecan-3 expression entry in the data set with Syndecan-3 is reported as “downregulated”. On to `O=C1NC(=O)C(c2ccccc2)(c2ccccc2)N1` [phenyloin (PHT), phenyloin], for which the syndecan-4 expression result in the data set with Syndecan-4 was “downregulated”. Regarding `Cc1cccc(Nc2cc(Cl)nc(SCC(=O)O)n2)c1C` [pirinixic acid], in the data set on Syndecan-1, the syndecan-1 expression entry was “downregulated”. Turning to `CC1=C(/C=C/C(C)=C/C=C/C(C)=C/C(=O)O)C(C)(C)CCC1` [tretinoin], the syndecan-1 expression entry with Syndecan-1 is given as “downregulated”.
